In patent publication US6221865A, “Inhibitors of protein isoprenyl transferases” (priority 1998, dated 2001):
Where a name gives a salt, the structure may show the parent alone.

Each molecule was assayed against T1, protein farnesyltransferase (Rattus norvegicus, UniProt Q02293+Q04631) (assay: Inhibition of farnesyltransferase (scintillation proximity assay, rat brain enzyme, biotin-K Ras B fragment substrate)). Details: 1 × 10^-5 M (Table 1).
T1 construct: The enzyme is purified according to Reiss, Y., et al., Cell, 62: 81-88 (1990), utilizing steps one through three; from tissue; host or cells: rat brain
T1 sequence (Q02293 whole entry, the tested form may be a part, one chain of several): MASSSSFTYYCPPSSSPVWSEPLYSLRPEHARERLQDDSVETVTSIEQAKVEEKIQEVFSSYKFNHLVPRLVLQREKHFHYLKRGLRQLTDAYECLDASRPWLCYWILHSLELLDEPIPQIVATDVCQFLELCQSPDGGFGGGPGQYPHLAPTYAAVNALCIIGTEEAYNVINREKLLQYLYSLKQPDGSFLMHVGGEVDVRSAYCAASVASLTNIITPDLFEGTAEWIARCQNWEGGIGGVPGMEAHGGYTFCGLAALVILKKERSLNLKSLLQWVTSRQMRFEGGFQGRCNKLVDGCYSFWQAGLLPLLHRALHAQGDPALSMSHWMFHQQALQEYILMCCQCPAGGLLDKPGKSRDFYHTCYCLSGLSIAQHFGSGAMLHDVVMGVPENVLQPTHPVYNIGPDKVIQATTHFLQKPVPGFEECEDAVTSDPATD
Assay type: biochemical
In short: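 Enzyme from rat brain, partly purified (steps one to three), assayed by SPA kit using 0.1 mM final biotin-K Ras B peptide as prenyl acceptor rather than biotin-lamin. Activity given as percent inhibition.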
For `CSCC[C@H](NC(=O)c1ccc(NC(=O)[C@@H]2C[C@@H](O)CN2)cc1-c1ccccc1)C(=O)O` [Example 952], the “% inhibition of farnesyltransferase at 1 × 10^-5 M” value (“% inhibition … at 1 × 10^-5 M” for short) was > 50%. For `CSCC[C@H](NC(=O)c1ccc(CNc2cccc(OC(F)(F)F)c2)cc1-c1ccccc1)C(=O)O` [Example 678], the “% inhibition … at 1 × 10^-5 M” value was 73%. With `COc1ccc(NCc2ccc(C(=O)N[C@@H](CCSC)C(=O)O)c(-c3ccccc3)c2)cc1` [Example 690] the “% inhibition … at 1 × 10^-5 M” value was 61%. For `CSCC[C@H](NC(=O)c1ccc(CNCCCN2CCOCC2)cc1-c1ccccc1)C(=O)O` [Example 377], the “% inhibition … at 1 × 10^-5 M” value was 71%. In the case of `CSCC[C@H](NC(=O)c1ccc(CNCc2cc(Cl)cc(Cl)c2)cc1-c1ccccc1)C(=O)O` [Example 712], the “% inhibition … at 1 × 10^-5 M” value is reported as 69%.

Same assay, conditions: 1 × 10^-6 M (Table 2)
With `CSCC[C@H](NC(=O)c1ccc(CN(C(=O)c2ccccc2)C(CC2CCCCC2)CC2CCCCC2)cc1-c1ccccc1C)C(=O)O` [Example 910] the “% inhibition of farnesyltransferase at 1 × 10^-6 M” value (“% inhibition … at 1 × 10^-6 M” below) was 42%. `CSCC[C@H](NC(=O)c1ccc(CN[C@@H](CC2CCCCC2)[C@@H](O)[C@@H](O)CC(C)C)cc1-c1ccccc1)C(=O)O` [Example 716] was tested, and the “% inhibition … at 1 × 10^-6 M” value was 69%. `CSCC[C@H](NC(=O)c1ccc(COCCC23CC4CC(CC(C4)C2)C3)cc1-c1ccccc1C)C(=O)O` [Example 404] was tested, and the “% inhibition … at 1 × 10^-6 M” value was 98%. For `CSCC[C@H](NC(=O)c1ccc(NCCO)cc1-c1ccccc1)C(=O)O` [Example 502], the “% inhibition … at 1 × 10^-6 M” value was 24%. In the case of `CSCCC(NC(=O)c1ccc(CNC(CO)c2ccccc2)cc1-c1ccccc1)C(=O)O` (stereo not shown) [Example 658], the “% inhibition … at 1 × 10^-6 M” value is reported as 73%. In the case of `CSCC[C@H](NC(=O)c1ccc(CN[C@H](/C=C\CC(C)C)CC2CCCCC2)cc1-c1ccccc1)C(=O)O` [Example 666], the “% inhibition … at 1 × 10^-6 M” value is reported as 82%. With `CSCC[C@H](NC(=O)c1ccc(NC(=O)Cc2ccccc2)cc1-c1ccccc1C)C(=O)O` [Example 540] the “% inhibition … at 1 × 10^-6 M” value was 40%. With `CSCC[C@H](NC(=O)c1ccc(CN(CCC2CCCCC2)C(=O)N(C)C)cc1-c1ccccc1C)C(=O)O` [Example 610] the “% inhibition … at 1 × 10^-6 M” value was 94%. With `CSCC[C@H](NC(=O)c1ccc(CNC(CO)Cc2ccc(Cl)cc2)cc1-c1ccccc1)C(=O)O` (stereo partly shown) [Example 662] the “% inhibition … at 1 × 10^-6 M” value was 68%. With `CSCC[C@H](NC(=O)c1ccc(NC(=O)Cc2ccc(C)cc2)cc1-c1ccccc1C)C(=O)O` [Example 541] the “% inhibition … at 1 × 10^-6 M” value was 37%. `Cc1ccccc1-c1cc(COCc2ccccc2)ccc1C(=O)N[C@@H](CCS(C)(=O)=O)C(=O)O` [Example 576] was tested, and the “% inhibition … at 1 × 10^-6 M” value was 88%. With `CSCC[C@H](NC(=O)c1ccc(CN(CCc2ccccc2)C(C)C)cc1-c1ccccc1C)C(=O)O` [Example 835] the “% inhibition … at 1 × 10^-6 M” value was 96%. In the case of `CSCC[C@H](NC(=O)c1ccc(CN[C@@H](/C=C\CC(C)C)CC2CCCCC2)cc1-c1ccccc1)C(=O)O` [Example 665], the “% inhibition … at 1 × 10^-6 M” value is reported as 55%. With `CSCC[C@H](NC(=O)c1ccc(CN(C(CC2CCCCC2)CC2CCCCC2)S(=O)(=O)c2ccccc2)cc1-c1ccccc1C)C(=O)O` [Example 911] the “% inhibition … at 1 × 10^-6 M” value was 65%. `CSCC[C@H](NC(=O)c1ccc(CN(Cc2ccoc2)C(C)C)cc1-c1ccccc1C)C(=O)O` [Example 832] was tested, and the “% inhibition … at 1 × 10^-6 M” value was 80%. With `CSCC[C@H](NC(=O)c1ccc(OCCC2CCCCC2)cc1-c1ccccc1C)C(=O)[O-].[Li+]` [Example 552] the “% inhibition … at 1 × 10^-6 M” value was 88%.

Same assay, conditions: 1 × 10^-7 M (Table 3)
In the case of `CSCC[C@H](NC(=O)c1ccc(COCCc2ccco2)cc1-c1ccccc1C)C(=O)[O-].[Li+]` [Example 531], the “% inhibition of farnesyltransferase at 1 × 10^-7 M” value (“% inhibition … at 1 × 10^-7 M” for short) is reported as 74%. `CSCC[C@H](NC(=O)c1ccc(COCc2ccccc2)cc1-c1ccccc1C)C(=O)NS(=O)(=O)c1ccccc1` [Example 580] was tested, and the “% inhibition … at 1 × 10^-7 M” value was 90%. In the case of `CCCCN(CCCC)Cc1ccc(C(=O)N[C@@H](CCSC)C(=O)O)c(-c2ccccc2C)c1` [Example 917], the “% inhibition … at 1 × 10^-7 M” value is reported as 78%. With `CCSCC(CC1CCCCC1)N(Cc1ccc(C(=O)N[C@@H](CCSC)C(=O)O)c(-c2ccccc2C)c1)CC(C)C` (stereo partly shown) [Example 945] the “% inhibition … at 1 × 10^-7 M” value was 80%. `CCCCN(CCCC)C(=O)CN(C)Cc1ccc(C(=O)N[C@@H](CCSC)C(=O)O)c(-c2ccccc2C)c1` [Example 913] was tested, and the “% inhibition … at 1 × 10^-7 M” value was 89%. `CSCC[C@H](NC(=O)c1ccc(COc2cccc3ccccc23)cc1-c1ccccc1C)C(=O)O` [Example 574] was tested, and the “% inhibition … at 1 × 10^-7 M” value was 81%. For `CCSC[C@H](CC1CCCCC1)N(Cc1ccc(C(=O)N[C@@H](CCSC)C(=O)O)c(-c2ccccc2C)c1)C(=O)c1ccccc1` [Example 949], the “% inhibition … at 1 × 10^-7 M” value was 57%. In the case of `CSCC[C@H](NC(=O)c1ccc(COCc2ccc(-c3ccc(C=O)cc3)o2)cc1-c1ccccc1C)C(=O)[O-].[Li+]` [Example 448], the “% inhibition … at 1 × 10^-7 M” value is reported as 92%.

Same assay, conditions: 1 × 10^-8 M (Table 4)
`CSCC[C@H](NC(=O)c1ccc(CN(CCc2ccccc2)c2cncnc2)cc1-c1ccccc1C)C(=O)O` [Example 518] was tested, and the “% inhibition of farnesyltransferase at 1 × 10^-8 M” value (from here on “% inhibition … at 1 × 10^-8 M”) was 90%. In the case of `CSCC[C@H](NC(=O)c1ccc(COCc2cnc(-c3ccccc3Cl)s2)cc1-c1ccccc1C)C(=O)[O-].[Li+]` [Example 897], the “% inhibition … at 1 × 10^-8 M” value is reported as 76%. `CCCCC(Cc1ccccc1Cl)OCc1ccc(C(=O)N[C@@H](CCSC)C(=O)O)c(-c2ccccc2C)c1` (stereo partly shown) [Example 943] was tested, and the “% inhibition … at 1 × 10^-8 M” value was 79%. In the case of `CCCCC(CCCC)OCc1ccc(C(=O)N[C@@H](CCSC)C(=O)[O-])c(-c2ccccc2C)c1.[Li+]` [Example 942], the “% inhibition … at 1 × 10^-8 M” value is reported as 58%. In the case of `CSCC[C@H](NC(=O)c1ccc(COCc2cnc(-c3cccc(F)c3)s2)cc1-c1ccccc1C)C(=O)[O-].[Li+]` [Example 898], the “% inhibition … at 1 × 10^-8 M” value is reported as 82%. For `CSCC[C@H](NC(=O)c1ccc(CN(C)CCC2CCCCC2)cc1-c1ccccc1C)C(=O)[O-].[Li+]` [Example 608], the “% inhibition … at 1 × 10^-8 M” value was 91%. For `CSCC[C@H](NC(=O)c1ccc(COCc2cccc(C(C)C)c2)cc1-c1ccccc1C)C(=O)[O-].[Li+]` [Example 939], the “% inhibition … at 1 × 10^-8 M” value was 72%. With `CSCC[C@H](NC(=O)c1ccc(CO[C@H](CSC)CC2CCCCC2)cc1-c1ccccc1C)C(=O)O` [Example 882] the “% inhibition … at 1 × 10^-8 M” value was 79%.

Same assay, conditions: read-out: % inhibition at 0.01 μM (**); Table 6, ** = 0.01 μM (footnote); title prints 0.01 mM
Molecule `CSCC[C@H](NC(=O)c1ccc(CN2CCN(Cc3ccccc3)CC2)cc1-c1ccccc1C)C(=O)O` [Example 1025] has an inhibition at 0.01 µM of 91%.

Same assay, conditions: read-out: % inhibition at 0.1 μM (*); Table 6, * = 0.1 μM (footnote); title prints 0.1 mM
Molecule `COCC1CCC(Cc2ccccc2)N1Cc1ccc(C(=O)N[C@@H](CCSC)C(=O)O)c(-c2ccccc2C)c1` (stereo partly shown) [Example 1118, N-[4-(2-methoxymethyl-5-benzylpyrrolidin-1-ylmethyl)-2-(2-methylphenyl)benzoyl]methionine] has an inhibition at 0.1 µM of 86%.

Same assay, conditions: read-out: % inhibition of farnesyltransferase at 1 × 10^-6 M; 1 × 10^-6 M (Table 2)
`CSCC[C@H](NC(=O)c1ccc(CCCc2ccc3ccccc3c2)cc1-c1ccccc1C)C(=O)O` [Example 470, N-[4-(3-naphth-2-ylpropyl)-2-(2-methylphenyl)benzoyl]methionine lithium salt] showed an inhibition at 1 µM of 95%. `CSCC[C@H](NC(=O)c1ccc(CN2CCCC(OCc3ccccc3)C2)cc1-c1ccccc1C)C(=O)O` (stereo partly shown) [Example 989, N-[4-(3-benzyloxypiperidin-1-ylmethyl)-2-(2-methylphenyl)benzoyl]methionine] was tested, and the inhibition at 1 µM was 88%. In the case of `CSCC[C@H](NC(=O)c1ccc(CN(C2CC2)C(C)(C)CC2CCCCC2)cc1-c1ccccc1C)C(=O)O` [Example 316], the inhibition at 1 µM is reported as 63%. Molecule `Cc1ccccc1-c1cc(CN(C2CC2)C(C)(C)Cc2ccccc2)ccc1C(=O)N[C@@H](CCS(C)(=O)=O)C(=O)O` [Example 319] has an inhibition at 1 µM of 98%. For `CSCC[C@H](NC(=O)c1ccc(CN(C2CC2)C2(CC3CCCCC3)CC2)cc1-c1ccccc1C)C(=O)O` [Example 324], the inhibition at 1 µM was 98%. Molecule `Cc1ccccc1-c1cc(CCc2ccc(Oc3ccccc3)cc2)ccc1C(=O)N[C@@H](CC[S+](C)[O-])C(=O)O` (stereo partly shown) [Example 463, N-[4-(2-(4-phenoxyphenyl)ethyl)-2-(2-methylphenyl)benzoyl]-2-amino-4-methylsulfinylbutanoic acid lithium salt] has an inhibition at 1 µM of 91%. In the case of `CSCC[C@H](NC(=O)c1ccc(C=CCc2ccc3ccccc3c2)cc1-c1ccccc1C)C(=O)O` (mixture of isomers) [Example 496, N-[4-(3-naphth-2-ylprop-1-enyl)-2-(2-methylphenyl)benzoyl]methionine lithium salt (1:1 mixture of olefin isomers)], the inhibition at 1 µM is reported as 93%. `CSCC[C@H](NC(=O)c1ccc(CN(C2CC2)C2(Cc3ccccc3)CC2)cc1-c1ccccc1C)C(=O)O` [Example 323] gave an inhibition at 1 µM of 98%. `CSCC[C@H](NC(=O)c1ccc(CNC(C)(C)Cc2ccccc2)cc1-c1ccccc1C)C(=O)O` [Example 307] was tested, and the inhibition at 1 µM was 82%.

Same assay, conditions: read-out: % inhibition of farnesyltransferase at 1 × 10^-7 M; 1 × 10^-7 M (Table 3)
Molecule `CSCC[C@H](NC(=O)c1ccc(C#Cc2cncnc2)cc1-c1ccccc1C)C(=O)O` [Example 493, N-[4-(2-pyrimidin-5-ylethynyl)-2-(2-methylphenyl)benzoyl]methionine lithium salt] has an inhibition at 0.1 µM of 51%.
